The values that follow are results of earlier work, collected in EP1362518A1, “Food product providing sustained blood levels of exogenous substances” (NESTEC S.A., priority 2002, dated 2003).

Test in data set [1]: not given
The source holds these as a separate data set.

The next data set relates to dogs. As to conditions: 100mg/kg/d (caffeine/body weight/day) consumed for more than 3 days.

`Cn1c(=O)c2c(ncn2C)n(C)c1=O` [caffeine]: under “in vivo”, the “threshold value for stimulation” value is “about 2 mg/l blood plasma” and the “threshold value of stimulation” value was “about 2 mg/l plasma”. In addition, under “side effects above this range”, the “upper end of the desired range” value is recorded as “about 20 mg/l blood plasma”. Besides, the half-life of caffeine in data set [1] (adults) is 3 to 7 h. Moreover, in data set [1] (after consumption of a cup of coffee), the “time of peak in caffeine level in blood” value is reported as “about an hour”. Also, the death entry in the data set on dogs is given as “death can occur”.
